Measured values from ChEMBL document CHEMBL1126623, “Neuraminidase-resistant hemagglutination inhibitors: acrylamide copolymers containing a C-glycoside of N-acetylneuraminic acid” (J Med Chem, 1993).

Species on record: Gallus gallus
Experiment: Tested for inhibition of agglutination of chicken erythrocytes in vitro
Assay type: functional

Ki: 400 nM
Structure (SMILES): C=CC(=O)NCCSCCCC1(C(=O)O)CC(O)C(NC(C)=O)C(C(O)C(O)CO)O1 (stereo unspecified)
